From patent publication US6503923B1, “Haloalkoxy imidazonaphthyridines” (ALTANA Pharma AG, priority 1999, dated 2003) come the findings set out here.

In data set [1] the test system is pentagastrin-stimulated acid secretion of perfused rat stomachs. In words: Antisecretory action in perfused rat stomachs (pentagastrin-stimulated acid secretion in vivo). Particulars: anesthetized CD rat, female, dose 3 μmol/kg i.v., perfused stomach. An excerpt: Testing of the Antisecretory Action in Perfused Rat Stomachs
The influence of the compounds according to the invention after intravenous administration on the pentagastrin-stimulated acid secretion of perfused rat stomachs in vivo is shown in Table A which follows.
The abdomen of anesthetized rates (CD rat, female, 200-250 g; 1.5 g/kg i.m. urethane) was opened after tracheotomy by means of a median upper abdominal incision and a PVC catheter was fixed transorally in the esophagus and another via the pylorus such that the ends of the tubes just projected into the gastric lumen. The catheter leading from the pylorus led outwards into the right abdominal wall through a side opening.
After thorough rinsing (about 50-100 ml), warm physiological NcCl solution (37° C.) was continuously passed through the stomach (0.5 ml/min, pH 6.8-6.9, Braun-Unita I). The pH (pH meter 632, glass electrode EA 147; φ=5 mm, Metrohm) and, by titration with a freshly prepared 0.01 N NaOH solution to pH 7 (dosimat 665 Metrohm), the secreted HCl were determined in the effluent, in each case collected at an interval of 15 minutes.
The gastric secretion was stimulated by continuous infusion of […] (=1.65 ml/h) of i.v. pentagastrin (left femoral vein) about 30 min after the end of the operation (i.e. after determination of 2 preliminary fractions). […]

Take `Cc1nc2c3c(ccn2c1C)[C@@H](OCC(F)(F)F)[C@H](O)[C@@H](c1ccccc1)N3` [Example 1, (7R, 8R, 9R)-2,3-Dimethyl-8-hydroxy-7-(2,2,2-trifluoroethoxy)-9-phenyl-7,8,9,10-tetra-hydroimidazo[1,2-h][1,7]naphthyridine]: the melting point (in general, the temperature, or range, at which the solid turns liquid) lay in the range of 178 to 180 °C. Further, the “Inhibition of acid secretion” value in data set [1] is recorded as 100%.
